“Also recorded” adds a separate entry of the source.
Columns and labels:
LNCaP cells [1] = assay: Expression profiling of 5-Aza treated LNCaP cells (Agilent 44K array, one-class SAM); format: cell-based, human; settings: 6 μM 5-Aza for 4 or 6 days vs DMSO, 5% false discovery rate, number of methylated genes on the array
Protocol: Significance analysis of microarray (SAM) (Tusher et al. Proc Natl Acad Sci USA 98: 5116-5121 2001) was performed on the gene expression dataset obtained from 5-Aza and DMSO-treated LNCaP cells by selecting genes that were methylated in LNCaP. From 1,171 methylated genes from LNCaP M-NGS (Table 1), a total of 973 genes were mapped to Agilent expression profiling data. One-class SAM analysis was done using default settings and significant genes were calculated with a false discovery rate (FDR) of 0.05.
For 5-Aza stimulation experiments, LNCaP cells cultured in RPMI 1640 were treated with vehicle, dimethyl sulfoxide (DMSO) or 6 μM 5-Aza for 4 or 6 days in duplicates. Total RNA was isolated with Trizol (Life Technologies, Carlsbad, Calif.) and further purified using RNAeasy Micro Kit (Qiagen, Valencia, Calif.) according to the manufacturer's instructions. Expression profiling was performed using the Agilent 44K expression array. One microgram of total RNA was converted to cRNA and then labeled according to the manufacturer's protocol (Agilent). Hybridizations were performed for 16 h at 65° C. Scanned images from Agilent microarray scanner were analyzed and extracted using Agilent Feature Extraction Software 9.1.3.1 with linear and lowess normalization performed for each array. […]

LNCaP cells [2] = assay: Quantitative real time PCR of transcript variants in 5-Aza treated LNCaP cells; format: cell-based, human; settings: 5-Aza treatment vs DMSO
Protocol: Total RNA was isolated from cells using RNeasy mini kit (Qiagen, Valencia, Calif.) according to manufacturer's instructions. A DNAseI treatment step was included during the total RNA isolation procedure to remove genomic DNA from the samples. One microgram of total RNA was used in cDNA synthesis using Superscript III reverse transcriptase (Invitrogen, Carlsbad, Calif.). Quantitative real time PCR (QPCR) was performed on prostate cell line cDNA samples using SYBR Green Mastermix (Applied Biosystems) on an Applied Biosystems 7900 Real Time PCR system as described (Tomlins et al. 2007, Nat Genet 39: 41-51). GAPDH primers sequences were as described (Vandesompele et al. 2002, Genome Biol 3: RESEARCH0034). The amount of target transcript and GAPDH in each sample was normalized by standard ddCt methodology, and then to the reference PrEC or DMSO-treated LNCaP samples accordingly.
For 5-Aza stimulation experiments, LNCaP cells cultured in RPMI 1640 were treated with vehicle, dimethyl sulfoxide (DMSO) or 6 μM 5-Aza for 4 or 6 days in duplicates. Total RNA was isolated with Trizol (Life Technologies, Carlsbad, Calif.) and further purified using RNAeasy Micro Kit (Qiagen, Valencia, Calif.) according to the manufacturer's instructions. Expression profiling was performed using the Agilent 44K expression array. One microgram of total RNA was converted to cRNA and then labeled according to the manufacturer's protocol (Agilent). Hybridizations were performed for 16 h at 65° C. Scanned images from Agilent microarray scanner were analyzed and extracted using Agilent Feature Extraction Software 9.1.3.1 with linear and lowess normalization performed for each array. A total of 4 hybridizations were performed including two 4 day and two 6 day 5-Aza treated samples (Cy5) against control DMSO-treated samples (Cy3). The accession number for gene expression dataset in the GEO database is GSE27619.

## Nc1ncn([C@H]2C[C@H](O)[C@@H](CO)O2)c(=O)n1 [5-Aza, 5-Aza-2′-deoxycytidine]
LNCaP cells [1]
  upregulation of LNCaP methylated genes (SAM): 246 out of 973
LNCaP cells [2]
  re-expression of CpG-methylated APC variant-2 and -3: preferentially re-expressed; also recorded: re-expression
  re-expression of CpG-methylated NDRG2 variants 1-4: preferentially re-expressed; also recorded: re-expression
  re-expression of CpG-methylated RASSF1 variant-1 transcript: preferential re-expression

Reference: patent US20130022974A1, “DNA METHYLATION PROFILES IN CANCER” (THE REGENTS OF THE UNIVERSITY OF MICHIGAN, priority 2011, published 2013)
